Columns and labels:
[1] = biological target: T1, tyrosinase (DOPA oxidase activity) in normal human neonatal epidermal melanocytes (NHEMs) (Homo sapiens, UniProt P14679); assay: DOPA oxidase activity in cultured normal human neonatal epidermal melanocytes
T1 sequence (P14679 19-529): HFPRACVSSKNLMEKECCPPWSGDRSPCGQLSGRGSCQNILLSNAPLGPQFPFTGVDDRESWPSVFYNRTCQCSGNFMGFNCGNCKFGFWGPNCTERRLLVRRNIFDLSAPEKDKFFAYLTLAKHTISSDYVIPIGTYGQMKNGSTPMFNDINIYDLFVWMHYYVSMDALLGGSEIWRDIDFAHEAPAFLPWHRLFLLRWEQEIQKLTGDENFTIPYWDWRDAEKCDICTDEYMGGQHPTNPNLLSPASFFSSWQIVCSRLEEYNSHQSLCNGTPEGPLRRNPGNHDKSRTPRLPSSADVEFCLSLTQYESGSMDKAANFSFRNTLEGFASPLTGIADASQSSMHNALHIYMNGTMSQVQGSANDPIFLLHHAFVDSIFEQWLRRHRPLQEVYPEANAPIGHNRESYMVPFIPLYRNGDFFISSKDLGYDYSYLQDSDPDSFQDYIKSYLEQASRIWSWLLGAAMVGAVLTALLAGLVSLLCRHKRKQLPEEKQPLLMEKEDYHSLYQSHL
Procedure: (§1) Medium 254 containing a PMA-free growth supplement (HMGS) was used as a medium.
(§2) After cultivating for 3 days, Endotheline-1 (ET-1), SCF, α-MSH, Histamine, and PGE2, each prepared to be the final concentration of 1 nM in the medium, were added. The same test compounds used in Example 1 were also added so as to reach the final concentration. The mixture was cultured at 37° C. for 3 days, in the presence of 5% CO2. The same amount of DMSO was added as a control.
After the completion of the cultivation, 20 L/well of alamar blue reagent (Invitrogen Corporation) was added. After incubating for 2 to 3 hours, the fluorescence intensity of the medium was measured to monitor the cell respiration activity. Then, the cells were washed with PBS, and 20 μL/well of extraction buffer (0.1 M Tris-HCL (pH 7.2), 1% NP-40, 0.01% SDS, 100 μM PMSF, 1 μg/m aprotinin) and 20 μL/well of Assay Buffer (4% dimethylformamide, 100 mM Sodium phosphate-buffered (pH 7.1)) were added. The cells were solubilized at 4° C. for 3 hours, and DOPA oxidase activity was measured. DOPA oxidase activity was measured according to the following method, with reference to the MBTH method (Winder A. et al., 1991, Eur. J. Biochem. 198:317-326).
80 μL of the above-mentioned Assay Buffer, 60 μL of 20.7 mM MBTH (3-methyl-2-benzothiazolinone hydrazone) solution, and 40 μL of 5 mM L-DOPA (L-dihydroxyphenylalanine) solution as a substrate, were added to each well of solubilized cell solution, and the mixture was allowed for reaction at 37° C. for 30 to 60 minutes. Then the color reaction was measured based on absorbance at 490 nm (N=3). The measurements are expressed as values relative to that of the control.

[2] = test system: Normal human neonatal epidermal melanocytes (NHEMs); assay: Alamar blue cell respiration activity (cell toxicity); format: cell-based; details: for Alamar blue (cell toxicity) AVE: cultured NHEMs
Procedure: as §1, §2
After the completion of the cultivation, 20 L/well of alamar blue reagent (Invitrogen Corporation) was added. After incubating for 2 to 3 hours, the fluorescence intensity of the medium was measured to monitor the cell respiration activity. Then, the cells were washed with PBS, and 20 μL/well of extraction buffer (0.1 M Tris-HCL (pH 7.2), 1% NP-40, 0.01% SDS, 100 μM PMSF, 1 μg/m aprotinin) and 20 μL/well of Assay Buffer (4% dimethylformamide, 100 mM Sodium phosphate-buffered (pH 7.1)) were added. The cells were solubilized at 4° C. for 3 hours, and DOPA oxidase activity was measured.

[3] = biological target: T2, human tyrosinase (neonatal epidermal melanocyte extract) (Homo sapiens, UniProt P14679); assay: DOPA oxidase activity (MBTH method) in cell extract; format: biochemical; details: for DOPA oxidase activity, value relative to that of the control: N=3; for DOPA oxidase activity suppressive effect (in words): IPMP 0.00075 to 0.015 w/v %
T2 construct: host or cells: normal human neonatal epidermal melanocytes (NHEMs), detergent/ultrasonication lysate supernatant
T2 sequence (P14679 19-529): T1 sequence (P14679 19-529)
Procedure: The cells were then treated with ultrasonication, and were centrifuged at 15000 r.p.m. for 10 minutes, and the supernatant was obtained.
Tyrosinase activity was measured using the cell extract mentioned above. […] Then, 20 μL of the following test compounds were added to the wells so that the mixture reaches the final concentration shown in Table 1.

[4] = test system: mushroom-derived tyrosinase; details: reported in JP-A-9-249544; cited from earlier work
[5] = test system: mouse melanoma B-16 cells; details: reported in JP-A-9-249544; cited from earlier work
[6] = 0.67 μM (0.00001 w/v %), Example 3
[7] = 10 μM (IPMP 0.00015 w/v %), 3 days, Example 2
[8] = 100 μM (IPMP 0.0015 w/v %), 3 days, Example 2
[9] = 167.5 μM (0.0025 w/v %), Example 3

| SMILES | DOPA oxidase activity AVE, relative to control [1, 7] | DOPA oxidase activity AVE, relative to control [1, 8] | Alamar blue (cell toxicity) AVE [2, 7] | Alamar blue (cell toxicity) AVE [2, 8] | DOPA oxidase activity, value relative to that of the control ([3]; 50 μM (IPMP 0.00075%)) | DOPA oxidase activity, value relative to that of the control ([3]; 100 μM (IPMP […])) | DOPA oxidase activity, value relative to that of the control ([3]; 500 μM (IPMP 0.0075%)) | DOPA oxidase activity, value relative to that of the control ([3]; 1000 μM (IPMP […])) | Inhibitory activity on mushroom-derived tyrosinase (in words) [4] | Suppressive effect on melanin production (in words) [5] | DOPA oxidase activity suppressive effect (in words) ([1]; Example 2) | DOPA oxidase activity suppressive effect (in words) [3] | further results |
| --- | --- | --- | --- | --- | --- | --- | --- | --- | --- | --- | --- | --- | --- |
| Cc1cc(O)ccc1C(C)C [IPMP, isopropylmethylphenol] | 74.8 | 50.6 | 94.1 | 127 | 83.1 ± 3.9 | 62.9 ± 3.5 | 32.8 ± 3.7 | 19.8 ± 1.2 | – | – | – | – | DOPA oxidase activity AVE, relative to control [1, 6]: 73.7; DOPA oxidase activity AVE, relative to control ([1]; 6.7 μM, Example 3): 56.5; DOPA oxidase activity AVE, relative to control ([1]; 67 μM (0.001 w/v %), Example 3): 33.9; DOPA oxidase activity AVE, relative to control [1, 9]: 25.6; Alamar blue (cell toxicity) AVE [2, 6]: 84.9; Alamar blue (cell toxicity) AVE ([2]; 6.7 μM (6.0001 w/v %), Example 3): 85.4; Effect on cell growth (in words) ([2]; 0.00001 to 0.0025 w/v %, Example 3): did not affect cell growth; Alamar blue (cell toxicity) AVE ([2]; 67 μM (0.001 w/v %), Example 3): 78.9; Alamar blue (cell toxicity) AVE [2, 9]: 77.0; Effect on cell growth (alamar blue method, in words) ([2]; at the concentration which showed DOPA oxidase activity suppressive effect, Example 2): did not affect cell growth |
| O=c1cc(CO)occ1O [Kojic acid] | – | – | 118.3 | 114.4 | – | – | – | – | – | – | – | – | – |
| Cc1ccc(C(C)C)c(O)c1 [compound 1, thymol] | 98.6 | 95 | 84.9 | 104.4 | 103.7 ± 0.9 | 93.8 ± 1.6 | 104.4 ± 0.8 | 105.4 ± 0.5 | exhibit inhibitory activity on mushroom-derived tyrosinase | exhibit suppressive effect on melanin production | did not show DOPA oxidase activity suppressive effect | did not show DOPA oxidase activity suppressive effect | – |
| Cc1ccc(C(C)C)cc1O [compound 2, carvacrol] | 99.3 | 96.3 | 94.2 | 115.2 | 102.1 ± 0.5 | 96.9 ± 1.8 | 99.6 ± 1.8 | 97.8 ± 1.9 | exhibit inhibitory activity on mushroom-derived tyrosinase | exhibit suppressive effect on melanin production | did not show DOPA oxidase activity suppressive effect | did not show DOPA oxidase activity suppressive effect | – |

From patent US20140112878A1, “Tyrosinase Inhibitor” (priority 2012, published 2014)
